In the NIST ThermoML archive (doi:10.1021/je400861g):

Experiment: mn = molality of the nth substance listed, in mol/kg
Settings: 298.15 K; for surface tension liquid-gas: Ring tensiometer; for electrical conductivity: 101 kPa, Liquid, DDS-11A conductometer

CCCCCCCCCCCC[n+]1ccn(C)c1.F[B-](F)(F)F [1-dodecyl-3-methylimidazolium tetrafluoroborate] + O
Settings | electrical conductivity [S/m] | surface tension liquid-gas [mN/m]
m1 = 0.0003 | 0.0324 | 56.4
m1 = 0.0006 | 0.0346 | 50.4
m1 = 0.001 | 0.0379 | 43.1
m1 = 0.0018 | 0.0455 | 34.3
m1 = 0.003 | 0.0553 | 29.6
m1 = 0.006 | 0.0629 | 28.2
m1 = 0.008 | 0.064 | 28.3
m1 = 0.01 | 0.0653 | 28.2
m1 = 0.018 | 0.0712 | 28.3
m1 = 0.03 | 0.0809 | 28
m1 = 0.04 | 0.091 | –
m1 = 0.06 | 0.11 | 27.7

CCCCCCCCCCCCCCCCn1cc[n+](C)c1.F[B-](F)(F)F [1-hexadecyl-3-methylimidazolium tetrafluoroborate] + O
Settings | electrical conductivity [S/m] | surface tension liquid-gas [mN/m]
m1 = 3e-06 | 0.0022 | –
m1 = 5e-06 | 0.0022 | –
m1 = 7e-06 | 0.0024 | –
m1 = 1e-05 | – | 52.9
m1 = 2e-05 | – | 47.9
m1 = 3e-05 | – | 43.8
m1 = 5e-05 | 0.007 | 38.4
m1 = 7e-05 | 0.0103 | 34.9
m1 = 0.0001 | 0.0142 | 36.7
m1 = 0.0002 | 0.0203 | 37
m1 = 0.0003 | 0.0265 | 36.4
m1 = 0.0005 | 0.0372 | 35.2
m1 = 0.0007 | 0.0462 | 35.2
m1 = 0.001 | 0.0593 | –

CCCCCCCCCCCCCCn1cc[n+](C)c1.F[B-](F)(F)F [3-methyl-1-tetradecyl-1H-imidazol-3-ium tetrafluoroborate] + O
Settings | electrical conductivity [S/m] | surface tension liquid-gas [mN/m]
m1 = 0.0001 | – | 47.9
m1 = 0.00018 | – | 41.9
m1 = 0.0003 | 0.032 | 39
m1 = 0.0006 | 0.0344 | 33.6
m1 = 0.001 | 0.036 | 29.9
m1 = 0.0018 | 0.0368 | 28.4
m1 = 0.003 | 0.0376 | 27.8
m1 = 0.006 | 0.0393 | 27.6
m1 = 0.01 | 0.0423 | 27.3
m1 = 0.018 | 0.0487 | 27
m1 = 0.03 | 0.0543 | –
m1 = 0.04 | 0.0633 | –
m1 = 0.06 | 0.0732 | –
